Assay results as given in ChEMBL document CHEMBL2021815, “Metabolism of 4-Aminopiperidine Drugs by Cytochrome P450s: Molecular and Quantum Mechanical Insights into Drug Design” (ACS Med Chem Lett, 2011).

Columns and labels:
Type in all cases: ADME, Microsome
CYP2D6 = CYP2D6 (Homo sapiens, UniProt P10635); test: Half life in human liver microsomes assessed as CYP2D6-mediated parent compound depletion at 1 uM
Liver microsomes = test: Clearance in human liver microsomes at 1 uM
CYP1A2 = target: T1, CYP1A2 (Homo sapiens, UniProt P05177); test: Half life in human liver microsomes assessed as CYP1A2-mediated parent compound depletion at 1 uM
T1 sequence (P05177 whole entry): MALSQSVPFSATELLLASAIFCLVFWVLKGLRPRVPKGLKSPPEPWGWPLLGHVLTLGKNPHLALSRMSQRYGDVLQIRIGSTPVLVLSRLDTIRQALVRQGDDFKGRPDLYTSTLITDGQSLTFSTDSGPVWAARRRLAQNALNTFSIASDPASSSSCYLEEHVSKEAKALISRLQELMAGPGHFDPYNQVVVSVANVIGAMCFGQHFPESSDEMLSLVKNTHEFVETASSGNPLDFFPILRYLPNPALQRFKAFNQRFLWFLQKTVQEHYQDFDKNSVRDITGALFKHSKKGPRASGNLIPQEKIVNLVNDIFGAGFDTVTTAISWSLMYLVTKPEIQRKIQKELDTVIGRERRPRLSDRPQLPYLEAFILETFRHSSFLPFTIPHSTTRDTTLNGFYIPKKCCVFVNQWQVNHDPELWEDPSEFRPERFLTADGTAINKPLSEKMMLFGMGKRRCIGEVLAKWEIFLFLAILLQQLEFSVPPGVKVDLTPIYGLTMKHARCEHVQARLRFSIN

CYP2C19 = CYP2C19 (Homo sapiens, UniProt P33261); test: Half life in human liver microsomes assessed as CYP2C19-mediated parent compound depletion at 1 uM
CYP2C8 = target: T2, CYP2C8 (Homo sapiens, UniProt P10632); test: Half life in human liver microsomes assessed as CYP2C8-mediated parent compound depletion at 1 uM
T2 sequence (P10632 whole entry): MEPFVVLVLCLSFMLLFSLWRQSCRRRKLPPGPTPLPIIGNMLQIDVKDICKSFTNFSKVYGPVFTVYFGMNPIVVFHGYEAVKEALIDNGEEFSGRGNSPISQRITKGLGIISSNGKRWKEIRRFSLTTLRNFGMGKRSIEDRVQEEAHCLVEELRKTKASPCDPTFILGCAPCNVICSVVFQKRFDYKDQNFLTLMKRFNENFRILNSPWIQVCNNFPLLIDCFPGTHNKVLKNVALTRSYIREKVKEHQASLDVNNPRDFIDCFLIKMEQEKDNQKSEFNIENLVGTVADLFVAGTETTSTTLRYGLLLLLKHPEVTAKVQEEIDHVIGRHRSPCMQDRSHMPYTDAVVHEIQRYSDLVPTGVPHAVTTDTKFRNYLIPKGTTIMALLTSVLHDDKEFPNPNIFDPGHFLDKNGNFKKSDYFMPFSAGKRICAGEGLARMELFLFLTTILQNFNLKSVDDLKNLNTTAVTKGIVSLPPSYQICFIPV

CYP2B6 = target: T3, CYP2B6 (Homo sapiens, UniProt P20813); test: Half life in human liver microsomes assessed as CYP2B6-mediated parent compound depletion at 1 uM
T3 sequence (P20813 whole entry): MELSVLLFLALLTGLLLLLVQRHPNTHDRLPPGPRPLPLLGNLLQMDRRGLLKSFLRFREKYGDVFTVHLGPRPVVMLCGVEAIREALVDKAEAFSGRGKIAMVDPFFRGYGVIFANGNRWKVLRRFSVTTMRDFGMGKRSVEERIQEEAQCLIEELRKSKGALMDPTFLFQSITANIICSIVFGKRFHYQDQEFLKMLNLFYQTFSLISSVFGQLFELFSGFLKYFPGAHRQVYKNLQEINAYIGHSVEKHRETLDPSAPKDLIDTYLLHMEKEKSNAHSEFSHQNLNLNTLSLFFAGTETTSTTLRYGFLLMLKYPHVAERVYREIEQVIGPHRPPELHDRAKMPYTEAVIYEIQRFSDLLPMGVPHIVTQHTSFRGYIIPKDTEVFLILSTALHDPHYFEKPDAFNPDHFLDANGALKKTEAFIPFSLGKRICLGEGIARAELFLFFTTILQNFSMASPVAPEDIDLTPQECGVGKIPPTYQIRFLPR

CYP3A4 = CYP3A4 (Homo sapiens, UniProt P08684); test: Half life in human liver microsomes assessed as CYP3A4-mediated parent compound depletion at 1 uM
CYP2C9 = CYP2C9 (Homo sapiens, UniProt P11712); test: Half life in human liver microsomes assessed as CYP2C9-mediated parent compound depletion at 1 uM
CYP2C9, sequence (P11712 whole entry): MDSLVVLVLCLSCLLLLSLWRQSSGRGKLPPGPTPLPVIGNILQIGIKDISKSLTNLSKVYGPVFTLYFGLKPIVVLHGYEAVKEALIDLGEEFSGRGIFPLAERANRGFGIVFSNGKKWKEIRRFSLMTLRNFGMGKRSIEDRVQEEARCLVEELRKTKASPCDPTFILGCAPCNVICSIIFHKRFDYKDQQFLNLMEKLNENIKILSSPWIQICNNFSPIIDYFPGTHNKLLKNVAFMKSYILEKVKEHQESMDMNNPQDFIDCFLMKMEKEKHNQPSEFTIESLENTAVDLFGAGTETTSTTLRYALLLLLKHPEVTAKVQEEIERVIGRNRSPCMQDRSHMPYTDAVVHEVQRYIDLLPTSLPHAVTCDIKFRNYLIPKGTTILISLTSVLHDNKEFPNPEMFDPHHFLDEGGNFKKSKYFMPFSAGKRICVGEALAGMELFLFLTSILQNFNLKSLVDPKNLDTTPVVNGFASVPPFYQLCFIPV

CYP2D6, sequence (P10635 whole entry): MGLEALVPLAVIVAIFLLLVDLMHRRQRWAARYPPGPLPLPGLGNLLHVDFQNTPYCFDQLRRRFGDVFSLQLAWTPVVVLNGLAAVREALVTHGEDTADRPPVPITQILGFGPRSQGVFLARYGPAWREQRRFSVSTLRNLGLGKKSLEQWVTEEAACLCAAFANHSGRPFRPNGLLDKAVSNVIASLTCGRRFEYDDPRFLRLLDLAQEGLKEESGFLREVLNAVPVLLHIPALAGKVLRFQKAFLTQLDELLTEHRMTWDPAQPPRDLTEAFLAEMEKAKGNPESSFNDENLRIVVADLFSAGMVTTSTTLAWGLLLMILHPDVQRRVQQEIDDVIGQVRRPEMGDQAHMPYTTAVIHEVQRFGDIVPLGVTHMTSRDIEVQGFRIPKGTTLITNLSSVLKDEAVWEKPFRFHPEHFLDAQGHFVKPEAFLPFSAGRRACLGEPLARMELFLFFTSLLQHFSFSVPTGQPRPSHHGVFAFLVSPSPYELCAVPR
CYP3A4, sequence (P08684 whole entry): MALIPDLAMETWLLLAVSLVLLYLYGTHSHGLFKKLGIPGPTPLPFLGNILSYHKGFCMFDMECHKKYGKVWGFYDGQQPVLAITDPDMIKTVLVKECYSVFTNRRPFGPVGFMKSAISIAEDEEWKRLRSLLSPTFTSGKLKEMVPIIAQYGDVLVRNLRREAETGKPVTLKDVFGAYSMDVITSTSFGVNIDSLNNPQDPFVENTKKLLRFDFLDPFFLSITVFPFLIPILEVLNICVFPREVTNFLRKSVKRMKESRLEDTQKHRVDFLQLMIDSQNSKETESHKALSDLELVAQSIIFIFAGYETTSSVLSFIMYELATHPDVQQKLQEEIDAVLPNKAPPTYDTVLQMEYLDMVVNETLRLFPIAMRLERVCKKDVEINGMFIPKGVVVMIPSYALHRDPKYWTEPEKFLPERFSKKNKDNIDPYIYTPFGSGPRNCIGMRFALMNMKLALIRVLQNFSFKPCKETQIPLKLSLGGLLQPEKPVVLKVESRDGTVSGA
CYP2C19, sequence (P33261 whole entry): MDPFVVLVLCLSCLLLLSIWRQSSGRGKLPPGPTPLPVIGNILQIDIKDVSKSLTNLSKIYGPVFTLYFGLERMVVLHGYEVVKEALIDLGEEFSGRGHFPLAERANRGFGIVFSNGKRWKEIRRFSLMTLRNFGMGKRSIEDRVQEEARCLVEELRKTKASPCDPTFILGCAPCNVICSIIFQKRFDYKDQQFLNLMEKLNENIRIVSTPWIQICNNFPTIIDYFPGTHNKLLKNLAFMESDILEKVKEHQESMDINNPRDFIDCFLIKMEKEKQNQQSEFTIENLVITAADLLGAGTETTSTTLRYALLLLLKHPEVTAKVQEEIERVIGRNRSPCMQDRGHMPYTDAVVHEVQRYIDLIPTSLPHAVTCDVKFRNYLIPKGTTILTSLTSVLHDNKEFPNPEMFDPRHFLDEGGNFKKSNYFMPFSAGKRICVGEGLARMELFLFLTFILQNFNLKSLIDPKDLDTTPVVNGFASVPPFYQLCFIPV

Row | SMILES | half-life at 1 µM (CYP2D6) | CLH (Liver microsomes) | half-life at 1 µM (CYP1A2) | half-life at 1 µM (CYP2C19) | half-life at 1 µM (CYP2C8) | half-life at 1 µM (CYP2B6) | half-life at 1 µM (CYP3A4) | half-life at 1 µM (CYP2C9) | Intrinsic clearance in liver microsomes (Liver microsomes)
1 | O=C(CCCN1CCC(n2c(O)nc3ccccc32)CC1)c1ccc(F)cc1 [BENPERIDOL] | 0.173 h | 42 µL/min/mg | > 1 h | > 1 h | 0.73 h | > 1 h | 0.055 h | > 1 h | 
2 | O=C(NC1CCN(CCc2c[nH]c3ccccc23)CC1)c1ccccc1 [INDORAMIN] | < 0.0833 h |  | > 1 h | > 1 h | > 1 h | > 1 h | 0.267 h | > 1 h | 46.4 µL/min/mg
3 | O=c1[nH]c2ccccc2n1C1CCN(CCCC(c2ccc(F)cc2)c2ccc(F)cc2)CC1 [PIMOZIDE] | 0.0533 h | 57 µL/min/mg | > 1 h | > 1 h | > 1 h | > 1 h | 0.045 h | > 1 h | 
4 | COc1cc(N)c(Cl)cc1C(=O)NC1CCN(CCCOc2ccc(F)cc2)CC1OC (stereo unspecified) [CISAPRIDE] | > 1 h |  | > 1 h | > 1 h | > 1 h | > 1 h |  | > 1 h | 120.7 µL/min/mg
5 | COc1cc(N)c(Cl)cc1C(=O)NC1CCN(Cc2ccccc2)CC1 [CLEBOPRIDE] | > 1 h |  | > 1 h | > 1 h | > 1 h | > 1 h | < 0.0833 h | > 1 h | 50.4 µL/min/mg
6 | COc1ccc(CCN2CCC(Nc3nc4ccccc4n3Cc3ccc(F)cc3)CC2)cc1 [ASTEMIZOLE] | 0.0667 h |  | > 1 h | > 1 h | > 1 h | > 1 h | 0.025 h | > 1 h | 136 µL/min/mg
7 | O=c1[nH]c2ccccc2n1CCCN1CCC(n2c(=O)[nH]c3cc(Cl)ccc32)CC1 [DOMPERIDONE] |  | 108.6 µL/min/mg |  |  |  |  |  |  | 
8 | CN(c1nc2ccccc2s1)C1CCN(CC(O)COc2ccc(F)cc2)CC1 (stereo unspecified) [SABELUZOLE] | 0.025 h |  | > 1 h | > 1 h | > 1 h | > 1 h | < 0.0833 h | > 1 h | 37 µL/min/mg
